Results on eleven compounds are retold here after patent publication US11384055B2 (BIOMARIN PHARMACEUTICAL INC., priority 2017, dated 2022).

The experiment has as its target T1, Human GO (Homo sapiens, UniProt Q9UJM8).
T1 construct: purchased Novus Biologicals NBP1-72412
T1 sequence (Q9UJM8 1-370): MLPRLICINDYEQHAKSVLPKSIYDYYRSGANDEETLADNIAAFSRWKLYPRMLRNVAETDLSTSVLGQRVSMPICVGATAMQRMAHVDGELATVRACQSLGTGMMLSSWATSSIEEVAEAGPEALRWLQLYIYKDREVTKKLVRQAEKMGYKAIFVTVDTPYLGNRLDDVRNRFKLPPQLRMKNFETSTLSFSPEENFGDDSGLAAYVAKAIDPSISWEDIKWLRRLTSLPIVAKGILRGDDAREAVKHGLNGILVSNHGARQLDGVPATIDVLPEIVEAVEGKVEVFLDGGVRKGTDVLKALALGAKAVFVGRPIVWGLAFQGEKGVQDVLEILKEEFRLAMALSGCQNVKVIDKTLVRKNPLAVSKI
Kind of experiment: GO enzymatic assay (coupled fluorescence/HRP assay, glycolate substrate). Format: biochemical. As to conditions: Table 4; read-out: Range (range of IC50 values calculated from the enzymatic assays). Summed up:
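Coupled HRP/fluorescence read-out of glycolate oxidation by human GO in 50 mM potassium phosphate buffer (pH 7). Inhibitors added across a concentration range.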

With `O=C(O)c1[nH]nnc1O[C@H]1CC[C@H](c2ccc(-c3ccnn3CC3(O)CCCCC3)cc2)CC1` [Example 471, 4-(((trans)-4-(4-(1-((1-hydroxycyclohexyl)methyl)-1H-pyrazol-5-yl)phenyl)cyclohexyl)oxy)-1H-1,2,3-triazole-5-carboxylic acid 2,2,2-trifluoroacetate], the IC50 (as a rule, the concentration at which inhibition is half-maximal) was below 100 nM.

Consider `NCCCOc1ccc([C@H]2CC[C@H](Oc3nn[nH]c3C(=O)O)CC2)cc1` [Example 472, 4-(((trans)-4-(4-(3-aminopropoxy)phenyl)cyclohexyl)oxy)-1H-1,2,3-triazole-5-carboxylic acid 2,2,2-trifluoroacetate], for which the IC50 was below 100 nM.

`CCC(CC)c1cc(-c2ccc([C@H]3CC[C@H](Oc4nn[nH]c4C(=O)O)CC3)cc2)[nH]n1` [Example 473, 4-(((trans)-4-(4-(3-(pentan-3-yl)-1H-pyrazol-5-yl)phenyl)cyclohexyl)oxy)-1H-1,2,3-triazole-5-carboxylic acid]: the IC50 was below 100 nM.

As to `CNCCCOc1ccc([C@H]2CC[C@H](Oc3nn[nH]c3C(=O)O)CC2)cc1` [Example 474, 4-(((trans)-4-(4-(3-(methylamino)propoxy)phenyl)cyclohexyl)oxy)-1H-1,2,3-triazole-5-carboxylic acid 2,2,2-trifluoroacetate], the IC50 is below 100 nM. The same measure for `CN(C)CCCOc1ccc([C@H]2CC[C@H](Oc3nn[nH]c3C(=O)O)CC2)cc1` [Example 478, 4-(((trans)-4-(4-(3-(dimethylamino)propoxy)phenyl)cyclohexyl)oxy)-1H-1,2,3-triazole-5-carboxylic acid 2,2,2-trifluoroacetate]: below 100 nM; for `CCC(O)(CC)Cn1nccc1-c1ccc([C@H]2CC[C@H](Oc3nn[nH]c3C(=O)O)CC2)cc1` [Example 479, 4-(((trans)-4-(4-(1-(2-ethyl-2-hydroxybutyl)-1H-pyrazol-5-yl)phenyl)cyclohexyl)oxy)-1H-1,2,3-triazole-5-carboxylic acid]: below 100 nM; for `CC(C)(O)Cn1nccc1-c1ccc([C@H]2CC[C@H](Oc3nn[nH]c3C(=O)O)CC2)cc1` [Example 480, 4-(((trans)-4-(4-(1-(2-hydroxy-2-methylpropyl)-1H-pyrazol-5-yl)phenyl)cyclohexyl)oxy)-1H-1,2,3-triazole-5-carboxylic acid]: below 100 nM. Regarding `O=C(O)c1[nH]nnc1O[C@H]1CC[C@H](c2ccc(Cl)c(C3CCC3)c2)CC1` [Example 482, 4-(((trans)-4-(4-chloro-3-cyclobutylphenyl)cyclohexyl)oxy)-1H-1,2,3-triazole-5-carboxylic acid], the IC50 is below 100 nM. Under `O=C(O)c1[nH]nnc1O[C@H]1CC[C@H](c2ccc(OC(F)(F)F)c(C3CCC3)c2)CC1` [Example 484, 4-(((trans)-4-(3-cyclobutyl-4-(trifluoromethoxy)phenyl)cyclohexyl)oxy)-1H-1,2,3-triazole-5-carboxylic acid] stands below 100 nM; under `COCCc1cc(-c2ccc([C@H]3CC[C@H](Oc4nn[nH]c4C(=O)O)CC3)cc2)[nH]n1` [Example 485, 4-(((trans)-4-(4-(3-(2-methoxyethyl)-1H-pyrazol-5-yl)phenyl)cyclohexyl)oxy)-1H-1,2,3-triazole-5-carboxylic acid 2,2,2-trifluoroacetate], below 100 nM; under `O=C(O)c1[nH]nnc1CO[C@H]1CC[C@H](c2cc(Cl)cc(Cl)c2)CC1` [Example 486, 4-((((trans)-4-(3,5-dichlorophenyl)cyclohexyl)oxy)methyl)-1H-1,2,3-triazole-5-carboxylic acid], below 100 nM.
